Assay results reported in PubChem BioAssay (NCI).
“And” between values parts separate entries of the source, which are not always exact repeats. Equal values may be shown once.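 Test compounds were applied to cells in 96-well plates for 48 hours at 5 doses. GI50: concentration for 50% inhibition of growth. The concentration for full growth arrest is given as TGI.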

Columns and labels:
Test in all cases: NCI tumour cell line growth inhibition, 48 h
DU-145 prostate = tested on: DU-145 prostate
MCF7 breast = tested on: MCF7 breast
UACC-62 melanoma = tested on: UACC-62 melanoma
SF-539 CNS = tested on: SF-539 CNS
CCRF-CEM leukemia = tested on: CCRF-CEM leukemia
HCT-116 colon = tested on: HCT-116 colon
SK-MEL-28 melanoma = tested on: SK-MEL-28 melanoma
HT29 colon = tested on: HT29 colon
SF-295 CNS = tested on: SF-295 CNS
SNB-75 CNS = tested on: SNB-75 CNS

Structure (SMILES)	TGI (DU-145 prostate)	TGI (MCF7 breast)	TGI (UACC-62 melanoma)	TGI (SF-539 CNS)	TGI (CCRF-CEM leukemia)	TGI (HCT-116 colon)	TGI (SK-MEL-28 melanoma)	TGI (HT29 colon)	GI50 (SF-295 CNS)	TGI (SF-295 CNS)	GI50 (DU-145 prostate)	GI50 (MCF7 breast)	GI50 (UACC-62 melanoma)	GI50 (SF-539 CNS)	GI50 (CCRF-CEM leukemia)	GI50 (HCT-116 colon)	GI50 (SNB-75 CNS)	TGI (SNB-75 CNS)	GI50 (SK-MEL-28 melanoma)	GI50 (HT29 colon)
CC1=CCC2CC1C(C(=O)c1c[nH]c3ccccc13)=NC2(C)C (stereo not given)	> 100 µM	> 100 µM	> 100 µM	> 100 µM	> 100 µM	> 100 µM	> 100 µM	> 100 µM												
CC1=C(C#N)C23C(=O)N(c4ccccc4)C(=O)C2=C(O)C=CC3(O)N1Cc1ccc(Cl)cc1Cl (stereo not given)	11.6 µM	13.3 µM	4.4 µM	4.9 µM	4.28 µM	3.45 µM	3.4 µM	4.84 µM	1.32 µM	5.64 µM	2.7 µM	2.12 µM	1.88 µM	2.11 µM	1.59 µM	1.73 µM	4.09 µM	16.7 µM	1.53 µM	1.97 µM
NC(=S)N/N=C/c1ccc(OC(=O)COc2cc(Cl)c(Cl)cc2Cl)cn1	27.3 µM	> 100 µM	22.4 µM	10.3 µM	> 100 µM	> 100 µM	> 100 µM	> 100 µM			3.52 µM	2.09 µM	3.46 µM	2.37 µM	2.8 µM	4.25 µM			13.1 µM	17.7 µM
Nc1ncc(-c2ccc3ncnc(Nc4cccc(Cl)c4)c3c2)cn1	> 100 µM		> 100 µM	> 100 µM	> 100 µM			> 100 µM	0.216 µM		0.809 µM	0.186 µM	2.69 µM	0.279 µM and 2.14 µM	1.85 µM		0.109 µM	0.695 µM		1.75 µM
Cc1ccc(CNc2ccc3nc(CCC4CCCCC4)[nH]c3c2)cc1	> 100 µM	6.24 µM	3.4 µM	6.06 µM	> 100 µM	5.05 µM		5.19 µM	1.88 µM	3.92 µM	3.73 µM	2.14 µM	1.74 µM	2.42 µM	3.29 µM	1.95 µM	1.75 µM	5.25 µM		1.88 µM
CC1(C)Oc2ccc3ccc(=O)oc3c2C(O)C1O (stereo not given)	> 100 µM	> 100 µM	> 100 µM	47.8 µM	96.9 µM	> 100 µM	> 100 µM	71.3 µM		> 100 µM								> 100 µM		
Cc1ccc(S(=O)(=O)ON2C(=O)c3cccc4cc([N+](=O)[O-])cc(c34)C2=O)cc1	> 100 µM	> 100 µM	> 100 µM			> 100 µM	> 100 µM	79.3 µM		> 100 µM								> 100 µM		
COc1ccc2c(c1)c(-c1nc(-c3cn(C)c4ccncc34)cs1)cn2C	3.34 µM	3.34 µM	4.78 µM	3.25 µM	6.05 µM		3.15 µM	3.1 µM	1.66 µM	3.16 µM	1.78 µM	1.7 µM	2.09 µM	1.77 µM	2.15 µM		14.7 µM	28 µM	1.71 µM	1.43 µM
O=C1C2CCN(CC2)C1CN1CCOCC1 (stereo not given)	20.1 µM	10.8 µM	30.9 µM	29 µM	> 23.8 µM	3.73 µM	10.6 µM	16.9 µM		33.9 µM								36.2 µM		
CCSC[C@@H]1C[C@](O)(c2ccc(Cl)cc2)[C@@H](c2ccc(Cl)cc2)O1	30 µM	48.5 µM	30.8 µM	31.1 µM	59.4 µM	25.1 µM	32.8 µM	30.8 µM	18.9 µM	35.4 µM	15 µM	21.8 µM	13.9 µM	16.5 µM	20.5 µM	12.6 µM	16.3 µM	32.4 µM	16.2 µM	15.6 µM
CN(C)c1ccc(/C=N/NC(N)=S)nc1	16.3 µM	> 100 µM	> 100 µM	> 100 µM	21.8 µM	> 100 µM	> 100 µM	> 100 µM	2.91 µM	16.1 µM	2.45 µM	1.64 µM	3.39 µM	1.81 µM	2.82 µM	3.3 µM	1.82 µM	> 100 µM	17.9 µM	4.46 µM
Fc1cccc(COc2ccc(Nc3ncnc4onc(-c5ccccc5)c34)cc2)c1	0.806 µM	> 100 µM	> 64.4 µM	1.09 µM	> 50.4 µM	> 37.4 µM	> 100 µM	> 34 µM	0.405 µM	> 26.7 µM	0.172 µM	0.0393 µM	0.496 µM	0.185 µM	0.287 µM	0.0546 µM	< 0.0162 µM	0.155 µM	16.4 µM	0.0495 µM
O=C1c2c(c(=O)[nH]c3ccccc23)[C@H](c2ccccc2)[C@@H]2CCCN12	27.5 µM	9.38 µM	22.3 µM	6.7 µM	> 100 µM	> 100 µM	32.9 µM		8.72 µM	47.8 µM	3.38 µM	2.57 µM	3.14 µM	2.6 µM	4.61 µM	2.54 µM	2.64 µM	16.9 µM	3.69 µM	
Cc1ccc(OCC2CO2)c(Br)c1 (stereo not given)	> 100 µM	34.9 µM	37.7 µM	29.9 µM	> 100 µM	73.3 µM	85.1 µM	29.1 µM		63.7 µM										
COc1cc2nc(Nc3cccc(Cl)c3)nc(N)c2cc1OC	22.8 µM	17.4 µM	25.7 µM	22.8 µM	7.3 µM	6.35 µM	3.78 µM	12.4 µM	4.37 µM	> 36.3 µM	6.74 µM	4.32 µM	13 µM	10.2 µM	2.36 µM	2.34 µM	17.4 µM	32.3 µM	1.93 µM	3.23 µM
NC(=O)CC1OC(=O)Cc2cc3c(c(O)c21)C(=O)c1c(O)cccc1C3=O (stereo not given)	> 100 µM	> 100 µM	> 100 µM	> 100 µM	> 100 µM	> 100 µM	> 100 µM	> 100 µM		> 100 µM										
CCOC(=O)C(=Cc1ccc(C#N)cc1)C(=O)OCC	10.3 µM	7.61 µM	4.54 µM	4.15 µM	9.32 µM	4.22 µM	6.56 µM	3.77 µM	8.56 µM	21.2 µM	3.04 µM	2.07 µM	1.99 µM	1.91 µM	3 µM	2.15 µM	2.17 µM	10.5 µM	2.35 µM	1.93 µM
Cn1ncc(Cl)c1-c1cc(C(=O)N[C@H](CN)Cc2cccc(F)c2)sc1Cl	> 10 µM and 19.4 µM	2.6 µM and 11.4 µM	> 5.59 µM and 11.6 µM	3.22 µM and 4.64 µM	> 10 µM and 10.5 µM	> 5.17 µM and 13.6 µM	4.85 µM and 9.04 µM	> 6.18 µM and 13.9 µM	0.255 µM and 0.486 µM	2.95 µM and 7.01 µM	2.28 µM and 5.86 µM		1.07 µM and 1.46 µM	0.313 µM and 0.325 µM	0.349 µM and 0.294 µM	1.27 µM and 2.84 µM	0.139 µM and 0.131 µM	1.48 µM and 2.56 µM	1.43 µM and 1.7 µM	0.733 µM and 2.03 µM
CCC(CC)n1cnc2c(-c3cnc(N)cn3)nc(N3CC4CCC(C3)O4)nc21	> 100 µM	> 100 µM	0.929 µM	4.19 µM	> 100 µM	> 100 µM		> 100 µM	0.173 µM	1.59 µM	0.93 µM	0.156 µM	0.122 µM	0.51 µM	0.443 µM	0.63 µM	0.0848 µM	1.18 µM		0.742 µM
CC(C)(C)OC(=O)C1C(=O)NC(=O)CC1CC(OCc1ccccc1)C(OCc1ccccc1)C(COCc1ccccc1)OCc1ccccc1 (stereo not given)	> 100 µM	> 100 µM and 89.6 µM		> 100 µM	> 100 µM	> 100 µM	> 100 µM	> 100 µM and 23.5 µM		> 100 µM		27 µM and 7.19 µM		> 100 µM and 36.6 µM	60.6 µM and 11.8 µM	48.5 µM and 17 µM		> 100 µM	> 100 µM and 18.7 µM	
Cc1cc(OCc2nnc3n2S(=O)(=O)c2ccccc2N3C)ccc1Cl	> 100 µM	> 100 µM	52.9 µM	38.6 µM	38 µM	> 100 µM	> 100 µM	> 100 µM		50.2 µM										
O=S(=O)(N=C1C(Cl)=C(Cl)C(=NS(=O)(=O)c2ccccc2)C(Cl)=C1Cl)c1ccccc1	60.9 µM	> 100 µM	38.4 µM	> 100 µM	90.9 µM	29.1 µM	78.1 µM	49.2 µM	29.5 µM	93.8 µM	18.5 µM	18 µM	13.3 µM	45.6 µM	14.8 µM	13.6 µM	23.5 µM	> 100 µM	20.6 µM	15.4 µM
CSc1ccc(C2=NN(C(C)=O)C(c3ccc(-c4cc(Cl)c(Cl)cc4Cl)o3)C2)cc1 (stereo not given)	29 µM	26.5 µM	21.8 µM	29.5 µM	47 µM	21.9 µM	29.7 µM	26.7 µM	18.3 µM	45.5 µM	15.5 µM	12.5 µM	10.2 µM	15.8 µM	21.5 µM	10.3 µM	18.7 µM	43.2 µM	16.2 µM	12.9 µM
COc1ccc(NC(=O)Oc2ccc3c(C)cc(=O)oc3c2)c(OC)c1 (tested in a mixture with another compound)	> 100 µM		> 100 µM	> 100 µM		> 100 µM	> 100 µM	> 100 µM		> 100 µM										
CCC1=C(c2ccc(OC)cc2)C(C)(C)Oc2c1ccc(O)c2CN1CCCC1	> 100 µM	3.2 µM	3.86 µM	17.2 µM	5.38 µM		3.32 µM	8.94 µM	2.33 µM	6.01 µM	3.77 µM	1.57 µM	1.81 µM	3.05 µM	1.86 µM		1.66 µM	87.4 µM	1.7 µM	3.14 µM
C[C@@H]1C[C@H](N)C[C@H](c2ccncc2NC(=O)c2ccc(F)c(-c3c(F)cccc3F)n2)C1	26.3 µM and > 10 µM	25 µM and > 10 µM	28.2 µM and > 10 µM	23.5 µM and > 10 µM		24.4 µM and > 10 µM	22.6 µM and > 10 µM	18.7 µM and > 10 µM	12.6 µM and > 10 µM	25.8 µM and > 10 µM	13.5 µM and > 10 µM	10.8 µM and > 10 µM	14.3 µM and > 10 µM	11.3 µM and > 10 µM		12.1 µM and 6.94 µM	2.55 µM and 4.3 µM	18.2 µM and > 10 µM	10.4 µM and > 10 µM	4.17 µM and 5.55 µM
[N-]=[N+]=NCN1C(=O)C2C3C=CC(C2C1=O)C1C2C(=O)N(CN=[N+]=[N-])C(=O)C2C31 (stereo not given)	> 100 µM	> 100 µM	> 100 µM	> 100 µM		> 100 µM	> 100 µM	> 100 µM		> 100 µM										
O=C1Nc2c(Cl)cc(Cl)cc2/C1=N/N=C/c1ccco1		> 100 µM	53.6 µM	> 100 µM	> 100 µM	> 100 µM	> 100 µM	> 100 µM		> 100 µM								42.7 µM		
C=C(C)[C@@H]1CC[C@]2(CO)CC[C@]3(C)[C@H](CC[C@@H]4[C@@]5(C)CCCNC(C)(C)[C@@H]5CC[C@]43C)[C@@H]12	3.02 µM	2.77 µM	3.25 µM	3.01 µM	4.91 µM	2.63 µM	3.16 µM		1.66 µM	3.13 µM	1.63 µM	1.29 µM	1.82 µM	1.58 µM	2.07 µM	1.29 µM	1.54 µM	2.91 µM	1.62 µM	
Oc1ccccc1-c1nn(CNc2ccc(Cl)cc2)c(=S)o1		> 100 µM	> 100 µM	> 100 µM	> 100 µM	51.4 µM		88.1 µM	> 100 µM	> 100 µM		4.17 µM	0.633 µM	23.8 µM	> 100 µM	18.2 µM				24.2 µM
